# Data as given in patent US20020137929A1, “1 - (3-heterocyclylphenyl) isothiourea, -isourea, -guanidine and -amidine herbicidal agents” (Intellectual Property Department, BASF Aktiengesellschaft, priority 1998, published 2002).
# What was measured:
# [1] = test system: GALAP (Galium); assay: Preemergence herbicidal evaluation; assay type: in vivo, Galium aparine; conditions: rated 4-5 weeks after treatment
# Procedure, shortened: (§1)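 Steps: mix seeds into potting soil; plant atop ~1 inch soil; spray compound in aqueous acetone (~0.0156-0.500 kg/ha equivalent); maintain in greenhouse with watering; rate visually 0-9 versus control at 4-5 weeks.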
# [2] = test system: GLXMAW (Soybean, Williams); assay: Postemergence herbicidal evaluation; assay type: in vivo, Glycine max, (L.) Merr. cv Williams; conditions: postemergence
# Procedure, shortened: (§2)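 Scores (0–9) reflect plant stand, vigor, malformation, size, chlorosis and general appearance relative to control, read 4 to 5 weeks after treatment and averaged where tests were repeated. Application: about 0.0156–0.500 kg/ha sprayed at 40 psi onto two-week seedlings.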
# [3] = test system: ABUTH (Velvetleaf); assay: Postemergence herbicidal evaluation; assay type: in vivo, Abutilon theophrasti; conditions: postemergence
# Procedure, shortened: as §2
# [4] = test system: ZEAMX (Corn, Field); assay: Preemergence herbicidal evaluation; assay type: in vivo, Zea mays; conditions: rated 4-5 weeks after treatment
# Procedure, shortened: as §1
# [5] = test system: ECHCG (Barnyardgrass); assay: Preemergence herbicidal evaluation; assay type: in vivo, Echinochloa crus-galli; conditions: rated 4-5 weeks after treatment
# Procedure, shortened: as §1
# [6] = test system: TRZAWR (Wheat, Winter, cv Riband); assay: Postemergence herbicidal evaluation; assay type: in vivo, Triticum aestivum; conditions: postemergence
# Procedure, shortened: as §2
# [7] = test system: ECHCG (Barnyardgrass); assay: Postemergence herbicidal evaluation; assay type: in vivo, Echinochloa crus-galli; conditions: postemergence
# Procedure, shortened: as §2
# [8] = test system: IPOHE (Morningglory, Ivyleaf); assay: Postemergence herbicidal evaluation; assay type: in vivo, Ipomoea hederacea; conditions: postemergence
# Procedure, shortened: as §2
# [9] = test system: SETVI (Foxtail, Green); assay: Postemergence herbicidal evaluation; assay type: in vivo, Setaria viridis; conditions: postemergence
# Procedure, shortened: as §2
# [10] = test system: CHEAL (Lambsquarters, Common); assay: Preemergence herbicidal evaluation; assay type: in vivo, Chenopodium album; conditions: rated 4-5 weeks after treatment
# Procedure, shortened: as §1
# [11] = test system: CASOB (Sicklepod); assay: Preemergence herbicidal evaluation; assay type: in vivo, Cassia obtusifolia; conditions: rated 4-5 weeks after treatment
# Procedure, shortened: as §1
# [12] = test system: IPOHE (Morningglory, Ivyleaf); assay: Preemergence herbicidal evaluation; assay type: in vivo, Ipomoea hederacea; conditions: rated 4-5 weeks after treatment
# Procedure, shortened: as §1
# [13] = test system: AMBEL (Ragweed, Common); assay: Postemergence herbicidal evaluation; assay type: in vivo, Ambrosia artemisifolia; conditions: postemergence
# Procedure, shortened: as §2
compound,measurement,setting,value
"Cn1c(C(F)(F)F)cc(=O)n(-c2cc(N=C3SCC(=O)N3C3CCC3)c(Cl)cc2F)c1=O [Compound 168, 3-{4-Chloro-5-[(3-cyclobutyl-4-oxo-2-thiazolidinylidene)amino]-2-fluorophenyl}-1-methyl-6-(trifluoromethyl)-2,4(1H,3H)-pyrimidinedione]",Preemergence herbicidal rating GALAP,[1]; 0.0156 kg/ha,0.0
same,Preemergence herbicidal rating GALAP,[1]; 0.0313 kg/ha,0.0
same,Preemergence herbicidal rating GALAP,[1]; 0.0625 kg/ha,0.0
same,Preemergence herbicidal rating GALAP,[1]; 0.1250 kg/ha,0.0
same,Preemergence herbicidal rating GALAP,[1]; 0.2500 kg/ha,3.0
same,Herbicidal rating GLXMAW,[2]; rate 0.0156 kg/ha,5.5
same,Herbicidal rating GLXMAW,[2]; rate 0.0313 kg/ha,6.5
same,Herbicidal rating GLXMAW,[2]; rate 0.0625 kg/ha,7.0
same,Herbicidal rating ABUTH,[3]; rate 0.0156 kg/ha,9.0
same,Herbicidal rating ABUTH,[3]; rate 0.0313 kg/ha,9.0
same,Herbicidal rating ABUTH,[3]; rate 0.0625 kg/ha,9.0
same,Preemergence herbicidal rating ZEAMX,[4]; 0.0156 kg/ha,0.0
same,Preemergence herbicidal rating ZEAMX,[4]; 0.0313 kg/ha,0.0
same,Preemergence herbicidal rating ZEAMX,[4]; 0.0625 kg/ha,0.0
same,Preemergence herbicidal rating ZEAMX,[4]; 0.1250 kg/ha,0.0
same,Preemergence herbicidal rating ZEAMX,[4]; 0.2500 kg/ha,0.0
same,Preemergence herbicidal rating ECHCG,[5]; 0.0156 kg/ha,0.0
same,Preemergence herbicidal rating ECHCG,[5]; 0.0313 kg/ha,0.0
same,Preemergence herbicidal rating ECHCG,[5]; 0.0625 kg/ha,0.0
same,Preemergence herbicidal rating ECHCG,[5]; 0.1250 kg/ha,0.0
same,Preemergence herbicidal rating ECHCG,[5]; 0.2500 kg/ha,0.0
same,Herbicidal rating TRZAWR,[6]; rate 0.0156 kg/ha,3.5
same,Herbicidal rating TRZAWR,[6]; rate 0.0313 kg/ha,3.5
same,Herbicidal rating TRZAWR,[6]; rate 0.0625 kg/ha,4.0
same,Herbicidal rating ECHCG,[7]; rate 0.0156 kg/ha,0.0
same,Herbicidal rating ECHCG,[7]; rate 0.0313 kg/ha,0.0
same,Herbicidal rating ECHCG,[7]; rate 0.0625 kg/ha,4.0
same,Herbicidal rating IPOHE,[8]; rate 0.0156 kg/ha,5.0
same,Herbicidal rating IPOHE,[8]; rate 0.0313 kg/ha,9.0
same,Herbicidal rating IPOHE,[8]; rate 0.0625 kg/ha,9.0
same,Herbicidal rating SETVI,[9]; rate 0.0156 kg/ha,0.0
same,Herbicidal rating SETVI,[9]; rate 0.0313 kg/ha,0.0
same,Herbicidal rating SETVI,[9]; rate 0.0625 kg/ha,3.0
same,Preemergence herbicidal rating CHEAL,[10]; 0.0156 kg/ha,3.0
same,Preemergence herbicidal rating CHEAL,[10]; 0.0313 kg/ha,9.0
same,Preemergence herbicidal rating CHEAL,[10]; 0.0625 kg/ha,9.0
same,Preemergence herbicidal rating CHEAL,[10]; 0.1250 kg/ha,9.0
same,Preemergence herbicidal rating CHEAL,[10]; 0.2500 kg/ha,9.0
same,Preemergence herbicidal rating CASOB,[11]; 0.0156 kg/ha,0.0
same,Preemergence herbicidal rating CASOB,[11]; 0.0313 kg/ha,0.0
same,Preemergence herbicidal rating CASOB,[11]; 0.0625 kg/ha,0.0
same,Preemergence herbicidal rating CASOB,[11]; 0.1250 kg/ha,0.0
same,Preemergence herbicidal rating CASOB,[11]; 0.2500 kg/ha,0.0
same,Preemergence herbicidal rating IPOHE,[12]; 0.0156 kg/ha,0.0
same,Preemergence herbicidal rating IPOHE,[12]; 0.0313 kg/ha,0.0
same,Preemergence herbicidal rating IPOHE,[12]; 0.0625 kg/ha,0.0
same,Preemergence herbicidal rating IPOHE,[12]; 0.1250 kg/ha,3.0
same,Preemergence herbicidal rating IPOHE,[12]; 0.2500 kg/ha,4.0
same,Herbicidal rating AMBEL,[13]; rate 0.0156 kg/ha,3.0
same,Herbicidal rating AMBEL,[13]; rate 0.0313 kg/ha,9.0
same,Herbicidal rating AMBEL,[13]; rate 0.0625 kg/ha,9.0
